These results are taken from US10493060B2, “Spirocyclic compounds” (ZENO ROYALTIES & MILESTONES, LLC, priority 2015, dated 2019).

The term IC50 denotes the point on the concentration scale where inhibition reaches its midpoint.

The target in one assay is Activated ERK1 (Homo sapiens (Human), UniProt P27361). Kind of assay: Active ERK1 kinase assay (Mobility Shift Assay). In kind it is biochemical. On the procedure:
(§1) Activated ERK1 and ERK2 activity was determined in a Mobility Shift Assay (MSA) format as follows: Compound and kinase solution were prepared with assay buffer (20 mM HEPES, 0.01% Triton X-100, 2 mM DTT, pH7.5) and mixed and incubated in for 30 mins at rt. ERK1 & ERK2 were then activated by the addition of Fl-Substrate, ATP and metal solution and incubated for 1 h at rt. After 1 h, the reaction was terminated by the addition of […] of Termination Buffer (QuickScout Screening Assist MSA; Carna Biosciences) to the well. The reaction mixture was applied to LabChip™ system (PerkinElmer), and the product and substrate peptide peaks were separated, analyzed and quantitated. The kinase reaction is evaluated by the product ratio calculated from peak heights of product (P) and substrate (S) peptides (P/(P+S)).

A further assay has as its target Activated ERK2 (Homo sapiens (Human), UniProt P28482). Nature of the assay: Active ERK2 kinase assay (Mobility Shift Assay). In kind it is biochemical. Here is the method:
as §1

The test system of another assay is A375 (melanoma) cells. Nature of the assay: Proliferation assay (CellTiter-Glo), A375. The settings on record: Homo sapiens, A-375, 72 h, 3 days. In kind it is cell-based. On the procedure:
(§2) A375 (melanoma), Colo-205 (colon cancer), Miapaca (pancreatic), HPAFII (pancreatic), sNF02.0 (neurofibromatosis type 1), sNF96.2 (neurofibromatosis type 1) and 8505 (Thyroid) cells were grown and maintained in RPMI-1640 medium containing 100 U/mL penicillin-streptomycin and 10% fetal bovine serum. Cells were in growth medium in 96-well opaque-walled clear bottom plates and incubated the in the CO2 incubator overnight before treatment. Cells were treated with compounds diluted in DMSO and a 10 point 3-fold serial dilutions were done. Plates were placed in 37° C., 5% CO2 for to incubate for 3 days. Before they were developed by adding 100 μL of CellTiter-Glo reagent (Promega) to the assay plate, plates were shaken briefly for 2 mins and allowed to incubate at rt for 10 mins. The bottom of the plates was pasted with white back seal and luminescence was recorded with Flexstation3 with setting of luminescence, integration time 500 ms.
For orientation: ATP-based viability assays read luminescence as a measure of living cells.

The subject of assay [1] is Colo-205 (colon cancer) cells. Nature of the assay: Proliferation assay (CellTiter-Glo), Colo-205. In kind it is cell-based. The conditions noted are these: Homo sapiens, COLO 205, 72 h, Colo205 cells, 3 days. Here is the method: as §2

Chain of Activated ERK1 (P27361 whole entry): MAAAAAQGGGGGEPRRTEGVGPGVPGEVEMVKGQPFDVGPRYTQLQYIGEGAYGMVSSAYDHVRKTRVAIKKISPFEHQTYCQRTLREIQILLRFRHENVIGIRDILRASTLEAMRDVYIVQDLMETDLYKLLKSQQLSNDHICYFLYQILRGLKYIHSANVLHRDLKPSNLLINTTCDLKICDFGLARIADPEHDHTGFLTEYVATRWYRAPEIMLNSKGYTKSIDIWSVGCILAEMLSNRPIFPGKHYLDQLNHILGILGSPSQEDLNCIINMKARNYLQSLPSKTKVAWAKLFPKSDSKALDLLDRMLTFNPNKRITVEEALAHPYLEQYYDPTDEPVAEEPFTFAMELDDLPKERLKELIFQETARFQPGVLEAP
Chain of Activated ERK2 (P28482 whole entry): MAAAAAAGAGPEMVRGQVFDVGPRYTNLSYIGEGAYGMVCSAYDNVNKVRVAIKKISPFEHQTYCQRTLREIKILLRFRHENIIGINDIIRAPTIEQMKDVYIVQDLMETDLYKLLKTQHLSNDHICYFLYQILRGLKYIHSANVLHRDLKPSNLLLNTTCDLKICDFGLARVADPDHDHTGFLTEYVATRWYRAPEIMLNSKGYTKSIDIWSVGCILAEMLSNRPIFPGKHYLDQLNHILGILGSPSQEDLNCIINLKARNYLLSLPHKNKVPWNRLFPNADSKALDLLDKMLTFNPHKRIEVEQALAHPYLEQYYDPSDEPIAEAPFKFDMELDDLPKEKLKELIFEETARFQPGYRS

`CC(C)Oc1ccc(-c2n[nH]c3ccc(N4CC[C@]5(CCN(CC(=O)N6CC=C(c7ccc(-c8cn(C)nn8)cc7)CC6)C5)C4=O)cc23)cn1` [Example 15, (S)-2-(3-(6-isopropoxypyridin-3-yl)-1H-indazol-5-yl)-7-(2-(4-(4-(1-methyl-1H-1,2,3-triazol-4-yl)phenyl)-3,6-dihydropyridin-1 (2H)-yl)-2-oxoethyl)-2,7-diazaspiro[4.4]nonan-1-one]: the IC50 at Activated ERK1 is no more than 50 nM; on Activated ERK2, no more than 50 nM; in the assay on A375 (melanoma) cells, no more than 500 nM; in assay [1], no more than 500 nM.
As to `CC(C)Oc1ccc(-c2n[nH]c3ccc(N4CC[C@]5(CCN(CC(=O)N6CC=C(c7ccc(-c8ncc(F)cn8)cc7)CC6)C5)C4=O)cc23)cn1` [Example 23, (S)-7-(2-(4-(4-(5-Fluoropyrimidin-2-yl)phenyl)-3,6-dihydropyridin-1(2H)-yl)-2-oxoethyl)-2-(3-(6-isopropoxypyridin-3-yl)-1H-indazol-5-yl)-2,7-diazaspiro[4.4]nonan-1-one], the IC50 was no more than 50 nM at Activated ERK1, no more than 50 nM on Activated ERK2 and 500 to 1000 nM with A375 (melanoma) cells.
Consider `Cc1nnc(-c2ccc(C3=CCN(C(=O)CN4CC[C@]5(CCN(c6ccc7[nH]nc(-c8ccc(OC(C)C)nc8)c7c6)C5=O)C4)CC3)cc2)o1` [Example 17, (S)-2-(3-(6-Isopropoxypyridin-3-yl)-1H-indazol-5-yl)-7-(2-(4-(4-(5-methyl-1,3,4-oxadiazol-2-yl)phenyl)-3,6-dihydropyridin-1(2H)-yl)-2-oxoethyl)-2,7-diazaspiro[4.4]nonan-1-one], for which the 50% inhibitory concentration (IC50) at Activated ERK1 was no more than 50 nM; on Activated ERK2, no more than 50 nM; with A375 (melanoma) cells it was no more than 500 nM; in assay [1], no more than 500 nM.
As to `Cn1cnc(-c2ccc(C3=CCN(C(=O)CN4CC[C@]5(CCN(c6ccc7[nH]nc(C8CCNC(C(F)(F)F)C8)c7c6)C5=O)C4)CC3)cc2)n1` (stereo partly drawn) [Example 12, (5S)-7-(2-(4-(4-(1-Methyl-1H-1,2,4-triazol-3-yl)phenyl)-3,6-dihydropyridin-1(2H)-yl)-2-oxoethyl)-2-(3-(2-(trifluoromethyl)piperidin-4-yl)-1H-indazol-5-yl)-2,7-diazaspiro[4.4]nonan-1-one], the IC50 on Activated ERK1 is no more than 50 nM; at Activated ERK2 it was no more than 50 nM; with A375 (melanoma) cells, 500 to 1000 nM; in assay [1], no more than 500 nM.
With `CC(C)Oc1cc(-c2n[nH]c3ccc(N4CC[C@]5(CCN(CC(=O)N6CC=C(c7ccc(-c8ncn(C)n8)cc7)CC6)C5)C4=O)cc23)ccn1` [Example 30, (S)-2-(3-(2-Isopropoxypyridin-4-yl)-1H-indazol-5-yl)-7-(2-(4-(4-(1-methyl-1H-1,2,4-triazol-3-yl)phenyl)-3,6-dihydropyridin-1(2H)-yl)-2-oxoethyl)-2,7-diazaspiro[4.4]nonan-1-one], the results for the IC50 on Activated ERK1, at Activated ERK2 and in the assay on A375 (melanoma) cells were no more than 50 nM, no more than 50 nM and no more than 500 nM, respectively.
As to `Cc1ccc(-c2n[nH]c3ccc(N4CCC5(CCN(CC(=O)N6CC=C(c7ccc(-c8ncn(C)n8)cc7)CC6)C5)C4=O)cc23)cn1` (centres unmarked) [Example 7, 7-(2-(4-(4-(1-Methyl-1H-1,2,4-triazol-3-yl)phenyl)-3,6-dihydropyridin-1(2H)-yl)-2-oxoethyl)-2-(3-(6-methylpyridin-3-yl)-1H-indazol-5-yl)-2,7-diazaspiro[4.4]nonan-1-one], the IC50 on Activated ERK1 is no more than 50 nM; on Activated ERK2, no more than 50 nM; in the assay on A375 (melanoma) cells, no more than 500 nM; in assay [1] it was no more than 500 nM.
Consider `CC(C)Oc1ccc(-c2n[nH]c3ccc(N4CC[C@]5(CCN(CC(=O)N6CC=C(c7ccc(-c8ncccn8)cn7)CC6)C5)C4=O)cc23)cn1` [Example 25, (S)-2-(3-(6-Isopropoxypyridin-3-yl)-1H-indazol-5-yl)-7-(2-oxo-2-(5-(pyrimidin-2-yl)-3′,6′-dihydro-[2,4′-bipyridin]-1′(2′H)-yl)ethyl)-2,7-diazaspiro[4.4]nonan-1-one], for which the results for the IC50 on Activated ERK1, at Activated ERK2 and in the assay with A375 (melanoma) cells were no less than 250 nM, 50 to 250 nM and no less than 1000 nM, respectively.
In the case of `Cn1nccc1Nc1nccc(-c2ccn([C@H](CO)c3ccc(Cl)c(F)c3)c(=O)c2)n1` [GDC-0994], the IC50 in the assay with A375 (melanoma) cells was 500 to 1000 nM; in assay [1] it was no more than 500 nM.
For `O=C(CN1CC[C@]2(CCN(c3ccc4[nH]nc(-c5ccnc(C(F)(F)F)c5)c4c3)C2=O)C1)N1CC=C(c2ccc(-c3ncc(F)cn3)cc2)CC1` [Example 28, (S)-7-(2-(4-(4-(5-Fluoropyrimidin-2-yl)phenyl)-3,6-dihydropyridin-1(2H)-yl)-2-oxoethyl)-2-(3-(2-(trifluoromethyl)pyridin-4-yl)-1H-indazol-5-yl)-2,7-diazaspiro[4.4]nonan-1-one], the IC50 is no more than 50 nM on Activated ERK1, no more than 50 nM on Activated ERK2 and no more than 500 nM in the assay with A375 (melanoma) cells.
For the compound `CC(C)Oc1ccc(-c2n[nH]c3ccc(N4CC[C@]5(CCN(CC(=O)N6CCC(F)(c7ccc(-c8ncn(C)n8)cc7)CC6)C5)C4=O)cc23)cn1` [Example 27], the IC50 on Activated ERK1 is no less than 250 nM; on Activated ERK2, no less than 250 nM; in the assay with A375 (melanoma) cells, no less than 1000 nM.
With `CC(C)Oc1ccc(-c2n[nH]c3ccc(N4CC[C@]5(CCN(CC(=O)N6CC=C(c7ccc(-c8ncccn8)cc7)CC6)C5)C4=O)cc23)cn1` [Example 22, (S)-2-(3-(6-Isopropoxypyridin-3-yl)-1H-indazol-5-yl)-7-(2-oxo-2-(4-(4-(pyrimidin-2-yl)phenyl)-3,6-dihydropyridin-1(2H)-yl)ethyl)-2,7-diazaspiro[4.4]nonan-1-one], the IC50 on Activated ERK1 is no more than 50 nM; at Activated ERK2 it was no more than 50 nM; with A375 (melanoma) cells it was no more than 500 nM.
In the case of `Cn1cnc(-c2ccc(C3=CCN(C(=O)CN4CC[C@]5(CCN(c6ccc7[nH]nc(-c8ccncc8F)c7c6)C5=O)C4)CC3)cc2)n1` [Example 31, (S)-2-(3-(3-Fluoropyridin-4-yl)-1H-indazol-5-yl)-7-(2-(4-(4-(1-methyl-1H-1,2,4-triazol-3-yl)phenyl)-3,6-dihydropyridin-1(2H)-yl)-2-oxoethyl)-2,7-diazaspiro[4.4]nonan-1-one], the IC50 at Activated ERK1 was no more than 50 nM; on Activated ERK2, no more than 50 nM; in the assay on A375 (melanoma) cells, no more than 500 nM.
In the case of `CC(C)Oc1ccc(-c2n[nH]c3ccc(N4CC[C@]5(CCN(CC(=O)N6CCC(C78CC(c9ncn(C)n9)(C7)C8)CC6)C5)C4=O)cc23)cn1` [Example 24, (S)-2-(3-(6-Isopropoxypyridin-3-yl)-1H-indazol-5-yl)-7-(2-(4-(3-(1-methyl-1H-1,2,4-triazol-3-yl)bicyclo[1.1.1]pentan-1-yl)piperidin-1-yl)-2-oxoethyl)-2,7-diazaspiro[4.4]nonan-1-one], the figures for the 50% inhibitory concentration (IC50) on Activated ERK1, on Activated ERK2 and in the assay on A375 (melanoma) cells were 50 to 250 nM, no more than 50 nM and no less than 1000 nM, respectively.
In the case of `Cn1cnc(-c2ccc(C3=CCN(C(=O)CN4CC[C@]5(CCN(c6ccc7[nH]ncc7c6)C5=O)C4)CC3)cc2)n1` [Example 36, (S)-2-(1H-indazol-5-yl)-7-(2-(4-(4-(1-methyl-1H-1,2,4-triazol-3-yl)phenyl)-3,6-dihydropyridin-1(2H)-yl)-2-oxoethyl)-2,7-diazaspiro[4.4]nonan-1-one], the IC50 on Activated ERK2 was 50 to 250 nM; in the assay on A375 (melanoma) cells, no less than 1000 nM.
In the case of `CC(C)Oc1ccc(-c2n[nH]c3ccc(N4CC[C@]5(CCN(CC(=O)N6CCN(c7ccc(-c8ncn(C)n8)cc7)CC6)C5)C4=O)cc23)cn1` [Example 32, (S)-2-(3-(6-Isopropoxypyridin-3-yl)-1H-indazol-5-yl)-7-(2-(4-(4-(1-methyl-1H-1,2,4-triazol-3-yl)phenyl)piperazin-1-yl)-2-oxoethyl)-2,7-diazaspiro[4.4]nonan-1-one], the results for the IC50 on Activated ERK2 and in the assay with A375 (melanoma) cells were no more than 50 nM and no more than 500 nM, respectively.
On to `Cn1cnc(-c2ccc(C3=CCN(C(=O)CN4CC[C@]5(CCN(c6ccc7[nH]nc(-c8cnccc8C(F)(F)F)c7c6)C5=O)C4)CC3)cc2)n1` [Example 34, (S)-7-(2-(4-(4-(1-Methyl-1H-1,2,4-triazol-3-yl)phenyl)-3,6-dihydropyridin-1(2H)-yl)-2-oxoethyl)-2-(3-(4-(trifluoromethyl)pyridin-3-yl)-1H-indazol-5-yl)-2,7-diazaspiro[4.4]nonan-1-one], for which the IC50 was no less than 250 nM on Activated ERK2 and no less than 1000 nM in the assay with A375 (melanoma) cells.
The corresponding values for `Cc1noc(-c2ccc(C3=CCN(C(=O)CN4CC[C@]5(CCN(c6ccc7[nH]nc(-c8ccnc(C(F)(F)F)c8)c7c6)C5=O)C4)CC3)cc2)n1` [Example 43, (S)-7-(2-(4-(4-(3-methyl-1,2,4-oxadiazol-5-yl)phenyl)-3,6-dihydropyridin-1(2H)-yl)-2-oxoethyl)-2-(3-(2-(trifluoromethyl)pyridin-4-yl)-1H-indazol-5-yl)-2,7-diazaspiro[4.4]nonan-1-one] are no more than 50 nM and no less than 1000 nM.
